Tested on: subjects with TRD
Assay: Adverse events (TEAEs, SAEs) in the TRD study
Type: in vivo, human
Details: 60 mg (n = 35)
Excerpt: The definitions of an AE and SAE can be found in Section F. AEs were reported by the subject (or, when appropriate, by a caregiver, surrogate, or the subject's legally authorized representative). The Investigator and any designees were responsible for detecting, documenting, and recording events that meet the definition of an AE or SAE and remained responsible for following up AEs that were serious, considered related to the study treatment or study procedures, or that caused the subject to discontinue from the study.
All AEs were collected from the signing of the ICF until the second follow-up visit (Day 15) at the time points specified in the Schedule of Activities (Section C). Medical occurrences that began before the start of study treatment but after obtaining informed consent were recorded on the Medical History/Current Medical Conditions section of the CRF, not the AE section. All SAEs were recorded and reported to the Sponsor or designee within 24 hours as indicated in Section F. The Investigator submitted any updated SAE data to the Sponsor or designee within 24 hours of it being available. Investigators were not obligated to actively seek AE or SAE information after the conclusion of study participation. However, if the Investigator learns of any SAE, including a death, at any time after a subject has been discharged from the study, and he/she considers the event to be reasonably related to the study treatment or study participation, the Investigator must promptly notify the Sponsor or designee. The method of recording, evaluating, and assessing the causality of AEs and SAEs and the procedures for completing and transmitting SAE reports are provided in Section F.
An AE is any untoward medical occurrence in a patient or subject, temporally associated with the use of study treatment, whether or not considered related to the study treatment. An AE can therefore be any unfavorable and unintended sign (including an abnormal laboratory finding), symptom, or disease (new or exacerbated) temporally associated with the use of study treatment.
If an event is not an AE per the definition above, then it cannot be an SAE even if serious conditions are met (e.g., hospitalization for signs/symptoms of the disease under study). A Serious Adverse Event (SAE) is defined as any untoward medical occurrence that, at any dose: a) results in death; b) is life-threatening; c) requires inpatient hospitalization or prolongation of existing hospitalization; d) results in persistent disability/incapacity; or e) is a congenital anomaly/birth defect. The term “life-threatening” in the definition of “serious” refers to an event in which the subject was at risk of death at the time of the event. […] In general, hospitalization signifies that the subject has been detained (usually involving at least an overnight stay) at the hospital or emergency ward for observation and/or treatment that would not have been appropriate in the physician's office or outpatient setting. Complications that occur during hospitalization are AEs. If a complication prolongs hospitalization or fulfills any other serious criteria, the event is serious. When in doubt as to whether “hospitalization” occurred or was necessary, the AE should be considered serious. […] The term disability means a substantial disruption of a person's ability to conduct normal life functions.
(MedDRA; Version 23.0 or higher). Treatment-emergent adverse events (TEAEs) are AEs with onset or worsening after the start of study treatment. The AE summaries will be primarily based on TEAEs. The number and percentage of subjects with TEAEs will be summarized by treatment group, system organ class, and preferred term for all TEAEs, treatment-related TEAEs, SAEs, serious TEAEs, severe TEAEs, TEAEs of special interest, and all TEAEs leading to study drug discontinuation. All TEAEs will be further summarized by maximum severity and causality. The TEAEs of special interest will be identified in the SAP. […]

CN[C@@]1(c2ccccc2Cl)CCCCC1=O [PCN 101]
Number of subjects with any treatment-emergent adverse events: 18 | Number of treatment-emergent adverse events: 53 | Subjects with any treatment-emergent adverse events: (%) of subjects: (51) | TEAE PT Alopecia: (%) of subjects: (3) | TEAE PT Alopecia: number of subjects: 1 | TEAE PT Aversion: (%) of subjects: (0) | TEAE PT Aversion: number of subjects: 0 | TEAE PT Balance disorder: (%) of subjects: (0) | TEAE PT Balance disorder: number of subjects: 0 | TEAE PT Blood pressure increased: (%) of subjects: (3) | TEAE PT Blood pressure increased: number of subjects: 1 | TEAE PT Bruxism: (%) of subjects: (0) | TEAE PT Bruxism: number of subjects: 0 | TEAE PT Confusional state: (%) of subjects: (3) | TEAE PT Confusional state: number of subjects: 1 | TEAE PT Defect conduction intraventricular: (%) of subjects: (3) | TEAE PT Defect conduction intraventricular: number of subjects: 1 | TEAE PT Derealisation: (%) of subjects: (9) | TEAE PT Derealisation: number of subjects: 3 | TEAE PT Diarrhoea: (%) of subjects: (0) | TEAE PT Diarrhoea: number of subjects: 0 | TEAE PT Dissociation: (%) of subjects: (0) | TEAE PT Dissociation: number of subjects: 0 | TEAE PT Dizziness: (%) of subjects: (20) | TEAE PT Dizziness: number of subjects: 7 | TEAE PT Dry mouth: (%) of subjects: (3) | TEAE PT Dry mouth: number of subjects: 1 | TEAE PT Dysarthria: (%) of subjects: (6) | TEAE PT Dysarthria: number of subjects: 2 | TEAE PT Dyspnoea exertional: (%) of subjects: (0) | TEAE PT Dyspnoea exertional: number of subjects: 0 | TEAE PT Energy increased: (%) of subjects: (3) | TEAE PT Energy increased: number of subjects: 1 | TEAE PT Euphoric mood: (%) of subjects: (3) | TEAE PT Euphoric mood: number of subjects: 1 | TEAE PT Fatigue: (%) of subjects: (3) | TEAE PT Fatigue: number of subjects: 1 | TEAE PT Feeling abnormal: (%) of subjects: (3) | TEAE PT Feeling abnormal: number of subjects: 1 | TEAE PT Feeling drunk: (%) of subjects: (6) | TEAE PT Feeling drunk: number of subjects: 2 | TEAE PT Haematuria: (%) of subjects: (0) | TEAE PT Haematuria: number of subjects: 0 | TEAE PT Headache: (%) of subjects: (6) | TEAE PT Headache: number of subjects: 2 | TEAE PT Hyperacusis: (%) of subjects: (0) | TEAE PT Hyperacusis: number of subjects: 0 | TEAE PT Hyperhidrosis: (%) of subjects: (0) | TEAE PT Hyperhidrosis: number of subjects: 0 | TEAE PT Hyperphagia: (%) of subjects: (3) | TEAE PT Hyperphagia: number of subjects: 1 | TEAE PT Hypoaesthesia oral: (%) of subjects: (3) | TEAE PT Hypoaesthesia oral: number of subjects: 1 | TEAE PT Hypoaesthesia: (%) of subjects: (0) | TEAE PT Hypoaesthesia: number of subjects: 0 | TEAE PT Increased appetite: (%) of subjects: (3) | TEAE PT Increased appetite: number of subjects: 1 | TEAE PT Influenza like illness: (%) of subjects: (0) | TEAE PT Influenza like illness: number of subjects: 0 | TEAE PT Infusion site hypoaesthesia: (%) of subjects: (3) | TEAE PT Infusion site hypoaesthesia: number of subjects: 1 | TEAE PT Left ventricular hypertrophy: (%) of subjects: (3) | TEAE PT Left ventricular hypertrophy: number of subjects: 1 | TEAE PT Lethargy: (%) of subjects: (3) | TEAE PT Lethargy: number of subjects: 1 | TEAE PT Limb discomfort: (%) of subjects: (0) | TEAE PT Limb discomfort: number of subjects: 0 | TEAE PT Logorrhoea: (%) of subjects: (0) | TEAE PT Logorrhoea: number of subjects: 0 | TEAE PT Memory impairment: (%) of subjects: (0) | TEAE PT Memory impairment: number of subjects: 0 | TEAE PT Muscle strain: (%) of subjects: (0) | TEAE PT Muscle strain: number of subjects: 0 | TEAE PT Muscular weakness: (%) of subjects: (3) | TEAE PT Muscular weakness: number of subjects: 1 | TEAE PT Nausea: (%) of subjects: (9) | TEAE PT Nausea: number of subjects: 3 | TEAE PT Paraesthesia: (%) of subjects: (6) | TEAE PT Paraesthesia: number of subjects: 2 | TEAE PT Rhinorrhoea: (%) of subjects: (0) | TEAE PT Rhinorrhoea: number of subjects: 0 | TEAE PT Sedation: (%) of subjects: (3) | TEAE PT Sedation: number of subjects: 1 | TEAE PT Sensory disturbance: (%) of subjects: (0) | TEAE PT Sensory disturbance: number of subjects: 0 | TEAE PT Sinusitis: (%) of subjects: (0) | TEAE PT Sinusitis: number of subjects: 0 | TEAE PT Skin abrasion: (%) of subjects: (3) | TEAE PT Skin abrasion: number of subjects: 1 | TEAE PT Slow speech: (%) of subjects: 0) | TEAE PT Slow speech: number of subjects: 0 | TEAE PT Smoke sensitivity: (%) of subjects: (3) | TEAE PT Smoke sensitivity: number of subjects: 1 | TEAE PT Somnolence: (%) of subjects: (11) | TEAE PT Somnolence: number of subjects: 4 | TEAE PT Tachycardia: (%) of subjects: (0) | TEAE PT Tachycardia: number of subjects: 0 | TEAE PT Throat tightness: (%) of subjects: (3) | TEAE PT Throat tightness: number of subjects: 1 | TEAE PT Time perception altered: (%) of subjects: (3) | TEAE PT Time perception altered: number of subjects: 1 | TEAE PT Urinary tract infection: (%) of subjects: (0) | TEAE PT Urinary tract infection: number of subjects: 0 | TEAE PT Venous injury: (%) of subjects: (0) | TEAE PT Venous injury: number of subjects: 0 | TEAE PT Vertigo: (%) of subjects: (0) | TEAE PT Vertigo: number of subjects: 0 | TEAE PT Vessel puncture site erythema: (%) of subjects: (0) | TEAE PT Vessel puncture site erythema: number of subjects: 0 | TEAE PT Vision blurred: (%) of subjects: (3) | TEAE PT Vision blurred: number of subjects: 1 | TEAE PT Visual impairment: (%) of subjects: (0) | TEAE PT Visual impairment: number of subjects: 0 | TEAE SOC Cardiac disorders: (%) of subjects: (6) | TEAE SOC Cardiac disorders: number of subjects: 2 | TEAE SOC Ear and labyrinth disorders: (%) of subjects: (0) | TEAE SOC Ear and labyrinth disorders: number of subjects: 0 | TEAE SOC Eye disorders: (%) of subjects: (3) | TEAE SOC Eye disorders: number of subjects: 1 | TEAE SOC Gastrointestinal disorders: (%) of subjects: (14) | TEAE SOC Gastrointestinal disorders: number of subjects: 5 | TEAE SOC General disorders and administration site conditions: (%) of subjects: (11) | TEAE SOC General disorders and administration site conditions: number of subjects: 4 | TEAE SOC Immune system disorders: (%) of subjects: (3) | TEAE SOC Immune system disorders: number of subjects: 1 | TEAE SOC Infections and infestations: (%) of subjects: (0) | TEAE SOC Infections and infestations: number of subjects: 0 | TEAE SOC Injury, poisoning and procedural complications: (%) of subjects: (3) | TEAE SOC Injury, poisoning and procedural complications: number of subjects: 1 | TEAE SOC Investigations: (%) of subjects: (3) | TEAE SOC Investigations: number of subjects: 1 | TEAE SOC Metabolism and nutrition disorders: (%) of subjects: (3) | TEAE SOC Metabolism and nutrition disorders: number of subjects: 1 | TEAE SOC Musculoskeletal and connective tissue disorders: (%) of subjects: (3) | TEAE SOC Musculoskeletal and connective tissue disorders: number of subjects: 1 | TEAE SOC Nervous system disorders: (%) of subjects: (40) | TEAE SOC Nervous system disorders: number of subjects: 14 | TEAE SOC Psychiatric disorders: (%) of subjects: (14) | TEAE SOC Psychiatric disorders: number of subjects: 5 | TEAE SOC Renal and urinary disorders: (%) of subjects: (0) | TEAE SOC Renal and urinary disorders: number of subjects: 0 | TEAE SOC Respiratory, thoracic and mediastinal disorders: (%) of subjects: (3) | TEAE SOC Respiratory, thoracic and mediastinal disorders: number of subjects: 1 | TEAE SOC Skin and subcutaneous tissue disorders: (%) of subjects: (3) | TEAE SOC Skin and subcutaneous tissue disorders: number of subjects: 1

Reference: patent publication US20260027068A1, “METHODS OF ADM[…]-KETAMINE” (Perception Neuroscience, Inc., priority 2022, published 2026)
